Test results: US9040501B2, “Compositions and methods for treating cancer” (Eisai Inc., priority 2009, dated 2015)

Experiment: Stability in simulated gastric fluid at 37° C. (HPLC)
Format: physicochemical
Description: […]. See Kararli, T. T. Comparison of the GI anatomy, physiology, and biochemistry of humans and commonly used laboratory animals. BioPharm & DrugDispos. 16:351-380, 1995, which is hereby wholly incorporated by reference. The gastric pH in fasted monkeys has been reported to have a similar range of 1-3. See Kondo, H. et al. Characteristics of the gastric pH profiles of unfed and fed cynomolgus monkeys as pharmaceutical product development subjects. BioPharm & DrugDispos. 24:45-51, 2003, which is hereby wholly incorporated by reference.
Materials: Simulated gastric fluid (SGF) was prepared by mixing the following into 100 mL of HPLC grade (or purified) water: 200 mg of sodium chloride and 1.87 mL of a 37.52% HCl stock solution.
The HPLC analyses were conducted using a Waters UPLC solvent delivery system with Corona CAD detection. The HPLC Column (Waters Atlantis HHS T3 2.1×100 mm, 1.8 um) was maintained at 40° C. and preequilibrated with a solution containing 98% water and 2% acetonitrile. The temperature controlled auto-sampler was maintained at 37° C. The flow rate for the Water/MeCN mobile phase was 0.65 mL/min, with a gradient following sample injection (5 μL) as follows: […]
The Water/MeCN mobile phase was applied to the column with the above described flow rate and gradient and the HPLC chromatograms were collected. After 3.5 minutes, the column was reequilibrated with 98% water/2% MeCN for 1.5 minutes.

O=C1NCC=CCN1[C@@H]1O[C@H](CO)[C@@H](O)C1(F)F [ER-876437, 1-((2R,4R,5R)-3,3-difluoro-4-hydroxy-5-(hydroxymethyl)tetrahydrofuran-2-yl)-3,4-dihydro-1H-1,3-diazepin-2(7H)-one]
% ER-876437 (peak retention time: 2.90 min) (SGF at 37° C., analysis time 0:17:24): 86.38% | % ER-876437 (peak retention time: 2.90 min) (SGF at 37° C., analysis time 0:23:02): 83.22% | % ER-876437 (peak retention time: 2.90 min) (SGF at 37° C., analysis time 0:28:39): 83.48% | % ER-876437 (peak retention time: 2.90 min) (SGF at 37° C., analysis time 0:34:17): 83.80% | % ER-876437 (peak retention time: 2.90 min) (SGF at 37° C., analysis time 0:39:54): 84.16% | % ER-876437 (peak retention time: 2.90 min) (SGF at 37° C., analysis time 0:45:32): 82.62% | % ER-876437 (peak retention time: 2.90 min) (SGF at 37° C., analysis time 0:51:10): 82.41% | % ER-876437 (peak retention time: 2.90 min) (SGF at 37° C., analysis time 0:56:47): 82.45% | % ER-876437 (peak retention time: 2.90 min) (SGF at 37° C., analysis time 1:02:26): 82.45% | % ER-876437 (peak retention time: 2.90 min) (SGF at 37° C., analysis time 1:08:04): 82.55% | % ER-876437 (peak retention time: 2.90 min) (SGF at 37° C., analysis time 1:13:41): 83.11% | % ER-876437 (peak retention time: 2.90 min) (SGF at 37° C., analysis time 1:19:19): 81.82% | % ER-876437 (peak retention time: 2.90 min) (SGF at 37° C., analysis time 1:24:56): 81.24% | % ER-876437 (peak retention time: 2.90 min) (SGF at 37° C., analysis time 1:30:33): 79.20% | % ER-876437 (peak retention time: 2.90 min) (SGF at 37° C., analysis time 1:36:10): 79.14% | % ER-876437 (peak retention time: 2.90 min) (SGF at 37° C., analysis time 1:41:47): 78.47% | % ER-876437 (peak retention time: 2.90 min) (SGF at 37° C., analysis time 1:47:24): 77.88% | % ER-876437 (peak retention time: 2.90 min) (SGF at 37° C., analysis time 1:53:02): 78.29% | % ER-876437 (peak retention time: 2.90 min) (SGF at 37° C., analysis time 1:58:39): 78.56% | % ER-876437 (peak retention time: 2.90 min) (SGF at 37° C., analysis time 2:04:16): 77.21% | % ER-876437 (peak retention time: 2.90 min) (SGF at 37° C., analysis time 2:21:12): 76.06% | % ER-876437 (peak retention time: 2.90 min) (SGF at 37° C., analysis time 2:26:50): 77.34% | % ER-876437 (peak retention time: 2.90 min) (SGF at 37° C., analysis time 2:49:21): 75.34% | % ER-876437 (peak retention time: 2.90 min) (SGF at 37° C., analysis time 3:17:30): 72.37% | % ER-876437 (peak retention time: 2.90 min) (SGF at 37° C., analysis time 3:51:16): 50.13% | % ER-876437 (peak retention time: 2.90 min) (SGF at 37° C., analysis time 4:19:26): 51.88% | % ER-876437 (peak retention time: 2.90 min) (SGF at 37° C., analysis time 4:47:38): 48.95% | % ER-876437 (peak retention time: 2.90 min) (SGF at 37° C., analysis time 5:21:25): 45.19% | % ER-876437 (peak retention time: 2.90 min) (SGF at 37° C., analysis time 5:49:35): 47.44% | % ER-876437 (peak retention time: 2.90 min) (SGF at 37° C., analysis time 6:17:45): 44.94% | % ER-876437 (peak retention time: 2.90 min) (SGF at 37° C., analysis time 6:51:31): 43.29% | % ER-876437 (peak retention time: 2.90 min) (SGF at 37° C., analysis time 7:19:40): 41.85% | % ER-876437 (peak retention time: 2.90 min) (SGF at 37° C., analysis time 7:47:22): 41.72% | % ER-876437 (peak retention time: 2.90 min) (SGF at 37° C., analysis time 8:21:11): 36.89% | % ER-876437 (peak retention time: 2.90 min) (SGF at 37° C., analysis time 8:49:19): 37.52% | % ER-876437 (peak retention time: 2.90 min) (SGF at 37° C., analysis time 9:17:30): 36.34% | % ER-876437 (peak retention time: 2.90 min) (SGF at 37° C., analysis time 9:51:17): 34.61% | % ER-876437 (peak retention time: 2.90 min) (SGF at 37° C., analysis time 10:19:29): 31.94% | % ER-876437 (peak retention time: 2.90 min) (SGF at 37° C., analysis time 10:47:39): 32.33% | % ER-876437 (peak retention time: 2.90 min) (SGF at 37° C., analysis time 11:15:53): 29.85% | % ER-876437 (peak retention time: 2.90 min) (SGF at 37° C., analysis time 11:49:44): 29.94% | % ER-876437 (peak retention time: 2.90 min) (SGF at 37° C., analysis time 12:17:54): 27.99% | % ER-876437 (peak retention time: 2.90 min) (SGF at 37° C., analysis time 12:46:10): 27.39% | % ER-876437 (peak retention time: 2.90 min) (SGF at 37° C., analysis time 13:20:01): 26.14% | % ER-876437 (peak retention time: 2.90 min) (analysis time 0:00:00, initial sample in water): 92.18% | half-life (simulated gastric fluid (pH 1.45) at 37° C.): 4 to 6 h
